# Data published in article PMC7316160 (Drug testing and analysis, 2018).
# Values joined by “and” are separate entries in the source; they are usually repeats but may differ in a detail not shown here. Identical values can stand only once. Like-named read-outs stand apart in the source and are kept apart here.
# Columns and labels:
# [1] = LC-MS/MS quantification in blood/serum of human intoxication cases; assay type: in vivo
# [2] = biological target: T1, dopamine transporter (DAT) (Rattus norvegicus, UniProt P23977); experiment: Inhibition of [^3H]dopamine uptake at DAT in rat brain synaptosomes; assay type: biochemical; details: for DAT/SERT ratio (uptake inhibition): [DAT IC50]^−1/[SERT IC50]^−1, higher value indicates greater DAT selectivity
# [3] = biological target: T2, norepinephrine transporter (NET) (Rattus norvegicus, UniProt Q63380); experiment: Inhibition of [^3H]norepinephrine uptake at NET in rat brain synaptosomes; assay type: biochemical; details: approximate value
# [4] = biological target: T1, dopamine transporter (DAT); experiment: Release of [^3H]MPP+ via DAT from rat brain synaptosomes; assay type: biochemical; details: for Release of [^3H]MPP+ via DAT EC50: rat brain synaptosomes, mean ± SD, n=3
# [5] = biological target: T2, norepinephrine transporter (NET); experiment: Release of [^3H]MPP+ via NET from rat brain synaptosomes; assay type: biochemical; details: for Release of [^3H]MPP+ via NET EC50: rat brain synaptosomes, mean ± SD, n=3
# [6] = biological target: 5-HT transporter (SERT) (Rattus norvegicus, UniProt P31652); experiment: Release of [^3H]5-HT via SERT from rat brain synaptosomes; assay type: biochemical; details: for Emax: read-out: Release of [^3H]5-HT via SERT %Emax; for Release of [^3H]5-HT via SERT EC50: rat brain synaptosomes, mean ± SD, n=3
# [7] = Stability in whole blood on storage; assay type: physicochemical, human; details: for long-term stability, variation of initial concentration: 90 days; for Stability (% difference): whole blood, n=3
# [8] = assay type: in vivo, human; details: for Potassium: reference 3.3 - 5.1; for aspartame aminotransferase: reference 10 - 40; for alanine aminotransferase: reference 12 - 78; for BUN: reference 15 - 39; for Sodium: reference 136 - 145; for pH: reference 7.35 - 7.45; for HCO3: reference 22 - 26; for pCO2: reference 35 - 45; for Glucose: reference 70 - 100; for pO2: reference 80 - 100; for serum creatinine: reference Male 0.8 - 1.3; for Hb: reference Male 13.2 - 18.0; for Hematocrit: reference Male 39.0 - 51.0; for creatine kinase: reference Male 39 - 308; for base excess: reference −2 - +2
# [9] = Case 4, co-exposure alcohol, MDMA and N-ethylnorpentylone
# [10] = Inhibition of [^3H]dopamine Uptake at DAT IC50, rat brain synaptosomes (caudate), mean ± SD, n=3
# T2 sequence (Q63380 1-617): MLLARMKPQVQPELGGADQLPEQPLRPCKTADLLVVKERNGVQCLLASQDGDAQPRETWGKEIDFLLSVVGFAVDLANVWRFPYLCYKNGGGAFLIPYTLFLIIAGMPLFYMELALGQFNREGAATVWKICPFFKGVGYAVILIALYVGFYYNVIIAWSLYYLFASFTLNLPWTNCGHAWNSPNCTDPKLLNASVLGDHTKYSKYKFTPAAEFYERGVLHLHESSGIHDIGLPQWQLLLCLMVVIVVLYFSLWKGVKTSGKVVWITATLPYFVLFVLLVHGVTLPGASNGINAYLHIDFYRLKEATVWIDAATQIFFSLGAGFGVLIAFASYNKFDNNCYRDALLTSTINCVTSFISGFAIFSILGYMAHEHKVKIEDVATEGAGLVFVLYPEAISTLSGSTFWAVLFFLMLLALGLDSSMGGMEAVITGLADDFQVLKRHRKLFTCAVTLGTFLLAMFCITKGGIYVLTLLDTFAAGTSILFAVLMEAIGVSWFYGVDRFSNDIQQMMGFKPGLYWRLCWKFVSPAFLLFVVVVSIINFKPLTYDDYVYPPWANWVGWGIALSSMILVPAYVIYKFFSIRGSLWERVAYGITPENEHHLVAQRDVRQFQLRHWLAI
# T1 sequence (P23977 whole entry): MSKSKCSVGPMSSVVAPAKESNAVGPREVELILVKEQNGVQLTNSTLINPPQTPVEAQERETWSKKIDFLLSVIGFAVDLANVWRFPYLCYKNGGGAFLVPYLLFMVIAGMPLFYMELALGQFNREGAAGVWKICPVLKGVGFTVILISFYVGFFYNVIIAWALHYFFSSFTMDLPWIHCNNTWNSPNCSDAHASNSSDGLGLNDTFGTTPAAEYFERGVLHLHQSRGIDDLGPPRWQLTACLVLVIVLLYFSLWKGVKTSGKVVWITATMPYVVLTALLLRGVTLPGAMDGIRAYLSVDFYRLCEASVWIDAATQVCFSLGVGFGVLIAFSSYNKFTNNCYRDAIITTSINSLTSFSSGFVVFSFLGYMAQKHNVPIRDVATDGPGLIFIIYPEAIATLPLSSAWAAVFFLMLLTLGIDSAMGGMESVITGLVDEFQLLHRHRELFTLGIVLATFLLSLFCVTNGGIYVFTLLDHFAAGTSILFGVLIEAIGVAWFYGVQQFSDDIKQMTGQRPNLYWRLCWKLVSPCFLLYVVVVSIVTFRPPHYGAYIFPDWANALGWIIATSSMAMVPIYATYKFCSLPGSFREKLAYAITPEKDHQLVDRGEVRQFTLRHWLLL
# Sequence of 5-HT transporter (SERT) (P31652 whole entry): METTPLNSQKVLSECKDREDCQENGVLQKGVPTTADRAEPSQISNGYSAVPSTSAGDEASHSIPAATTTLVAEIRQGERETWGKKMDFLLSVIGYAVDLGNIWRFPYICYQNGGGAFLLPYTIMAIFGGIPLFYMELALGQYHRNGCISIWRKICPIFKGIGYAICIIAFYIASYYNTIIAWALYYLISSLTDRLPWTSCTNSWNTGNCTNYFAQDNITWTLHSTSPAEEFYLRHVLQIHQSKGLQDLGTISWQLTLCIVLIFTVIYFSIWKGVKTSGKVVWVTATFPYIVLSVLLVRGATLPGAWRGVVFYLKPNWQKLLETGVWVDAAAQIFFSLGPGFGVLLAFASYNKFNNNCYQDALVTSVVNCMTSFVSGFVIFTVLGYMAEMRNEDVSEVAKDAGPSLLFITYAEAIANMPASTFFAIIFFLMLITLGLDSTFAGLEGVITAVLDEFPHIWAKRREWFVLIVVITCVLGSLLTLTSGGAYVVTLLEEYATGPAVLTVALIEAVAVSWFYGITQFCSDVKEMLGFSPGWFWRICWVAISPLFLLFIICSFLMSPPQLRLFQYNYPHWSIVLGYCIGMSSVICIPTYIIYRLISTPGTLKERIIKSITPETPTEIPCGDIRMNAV
structure (smiles),measurement,setting,value
"CNC(C)Cc1ccc2c(c1)OCO2 (stereo not drawn) [MDMA, 3,4-methylenedioxymethamphetamine]",serum concentration,[1]; [9],54 ng/mL
"CNC(C)C(=O)c1ccc2c(c1)OCO2 (stereo not drawn) [Methylone, 3,4-methylenedioxy-N-methylcathinone]",IC50,[2]; [10],1390 ± 81 nM
same,DAT/SERT ratio (uptake inhibition),[2],0.83 and 0.8
same,IC50,"[2]; uptake inhibition at DAT IC50, rat brain synaptosomes, approximate value",~1000 nM
same,IC50,[3],~1000 nM
same,EC50,[4],178 ± 17 nM
same,DAT/SERT ratio (release),"[4]; [DAT EC50]^−1/[SERT EC50]^−1, higher value indicates greater DAT selectivity",1.9
same,Emax,[4]; read-out: Release of [^3H]MPP+ via DAT %Emax,96%
same,EC50,[5],81 ± 8 nM
same,Emax,[5]; read-out: Release of [^3H]MPP+ via NET %Emax,94%
same,EC50,[6],342 ± 20 nM
same,Emax,[6],99%
"CCCC(NCC)C(=O)c1ccc2c(c1)OCO2 (stereo not drawn) [N-ethylnorpentylone, 1-(1,3-benzodioxol-5-yl)-2-(ethylamino)pentan-1-one]",IC50,[2]; [10],37 ± 2 nM
same,DAT/SERT ratio (uptake inhibition),[2],> 10
same,Release of [^3H]MPP+ via DAT EC50,[4],unable to evoke release
same,Release of [^3H]MPP+ via DAT EC50,[4]; listed as N-EthylNorpentylone,inactive
same,Release of [^3H]MPP+ via DAT EC50,[4]; listed as N-Ethylnorpentylone,no transporter releasing activity
same,Release of [^3H]MPP+ via NET EC50,[5],unable to evoke release
same,Release of [^3H]MPP+ via NET EC50,[5]; listed as N-EthylNorpentylone,inactive
same,Release of [^3H]MPP+ via NET EC50,[5]; listed as N-Ethylnorpentylone,no transporter releasing activity
same,Release of [^3H]5-HT via SERT EC50,[6],unable to evoke release
same,Release of [^3H]5-HT via SERT EC50,[6]; listed as N-EthylNorpentylone,inactive
same,Release of [^3H]5-HT via SERT EC50,[6]; listed as N-Ethylnorpentylone,no transporter releasing activity
same,"long-term stability, variation of initial concentration","[7]; fortified whole blood, both QC concentrations, 4 °C",−3.5%
same,"long-term stability, variation of initial concentration","[7]; fortified whole blood, both QC concentrations, −20 °C",+6.5%
same,"long-term stability, variation of initial concentration","[7]; post mortem blood sample, 4 °C",−19.7%
same,"long-term stability, variation of initial concentration","[7]; post mortem blood sample, −20 °C",−5.5%
same,Stability (% difference),"[7]; High QC (400 ng/mL), 3 freeze-thaw cycles",−3.0%
same,Stability (% difference),"[7]; High QC (400 ng/mL), 4 °C, 24h",7.1%
same,Stability (% difference),"[7]; High QC (400 ng/mL), 4 °C, 72h",5.9%
same,Stability (% difference),"[7]; High QC (400 ng/mL), −20 °C, 24h",−3.3%
same,Stability (% difference),"[7]; High QC (400 ng/mL), −20 °C, 72h",−2.9%
same,Stability (% difference),"[7]; Low QC (15 ng/mL), 3 freeze-thaw cycles",−11.8%
same,Stability (% difference),"[7]; Low QC (15 ng/mL), 4 °C, 24h",−2.4%
same,Stability (% difference),"[7]; Low QC (15 ng/mL), 4 °C, 72h",−4.9%
same,Stability (% difference),"[7]; Low QC (15 ng/mL), −20 °C, 24h",−1.8%
same,Stability (% difference),"[7]; Low QC (15 ng/mL), −20 °C, 72h",−12.6%
same,post mortem whole blood concentration,"[1]; Case 1, fatal, only psychoactive analyte detected",170 ng/mL
same,serum concentration,"[1]; Case 2, recovered by 12 h",7 ng/mL
same,serum concentration,[1]; [9],19 ng/mL
same,serum concentration,"[1]; Case 5, coma, cerebrovascular hemorrhage",149 ng/mL
same,serum concentration,"[1]; Case 6, psychosis",61 ng/mL
same,symptoms of intoxicated subjects,[8]; 6 human cases,"palpitations, tachycardia, agitation, aggression, hallucinations, coma and, in one case, death"
same,heart rate (tachycardia),"[8]; Case 2, at ED",176 bpm
same,Potassium,[8]; Case 3,3.6 mEq/L
same,aspartame aminotransferase,[8]; Case 3,93 U/L
same,alanine aminotransferase,[8]; Case 3,35 U/L
same,BUN,[8]; Case 3,14 mg/dL
same,Sodium,[8]; Case 3,140 mEq/L
same,phosphatase alkaline,"[8]; Case 3, reference Adult 50 - 136",53 U/L
same,blood pressure,"[8]; Case 4, described as normal",123/89
same,Potassium,[8]; Case 4,3.4 mEq/L
same,creatine kinase MB isoenzyme,"[8]; Case 4, reference 7 - 25",21 U/L
same,pH,[8]; Case 4,7.46
same,aspartame aminotransferase,[8]; Case 4,40 U/L
same,alanine aminotransferase,[8]; Case 4,25 U/L
same,BUN,[8]; Case 4,14 mg/dL
same,HCO3,[8]; Case 4,20.5 mmol/L
same,pCO2,[8]; Case 4,29.4 mmHg
same,Glucose,[8]; Case 4,104 mg/dL
same,pO2,[8]; Case 4,72.5 mmHg
same,Sodium,[8]; Case 4,137 mEq/L
same,serum creatinine,[8]; Case 4,0.9 mg/dL
same,Hb,[8]; Case 4,15.5 g/dL
same,Hematocrit,[8]; Case 4,43.0%
same,creatine kinase,[8]; Case 4,605 U/L
same,base excess,[8]; Case 4,-1.6 mmol/L
same,Glasgow score (neurological depression),[8]; Case 5,5
same,Lactate,"[8]; Case 5, reference 0.5 - 1.6",11.0 mmol/L
same,Magnesium,"[8]; Case 5, reference 1.6 - 2.4",1.6 mg/dL
same,Potassium,[8]; Case 5,3.7 mEq/L
same,pH,[8]; Case 5,7.41
same,BUN,[8]; Case 5,28 mg/dL
same,HCO3,[8]; Case 5,19 mmol/L
same,pCO2,[8]; Case 5,31 mmHg
same,pO2,[8]; Case 5,86 mmHg
same,Sodium,[8]; Case 5,137 mEq/L
same,serum creatinine,[8]; Case 5,0.7 mg/dL
same,Hb,[8]; Case 5,13.0 g/dL
same,Hematocrit,[8]; Case 5,43.0%
same,creatine kinase,[8]; Case 5,"1,260 U/L"
same,base excess,[8]; Case 5,-3.8 mmol/L
same,Potassium,[8]; Case 6,3.8 mEq/L
same,aspartame aminotransferase,[8]; Case 6,24 U/L
same,alanine aminotransferase,[8]; Case 6,27 U/L
same,BUN,[8]; Case 6,31 mg/dL
same,Glucose,[8]; Case 6,101 mg/dL
same,Sodium,[8]; Case 6,137 mEq/L
same,serum creatinine,[8]; Case 6,0.7 mg/dL
same,Hb,[8]; Case 6,13.0 g/dL
same,Hematocrit,[8]; Case 6,39.9%
same,creatine kinase,[8]; Case 6,713 U/L
"CCCC(NC)C(=O)c1ccc2c(c1)OCO2 (stereo not drawn) [Pentylone, 1-(1,3-benzodioxol-5-yl)-2-(methylamino)pentan-1-one]",IC50,[2]; [10],154 ± 11 nM
same,DAT/SERT ratio (uptake inhibition),[2],7.8
same,Release of [^3H]MPP+ via DAT EC50,[4],inactive
same,Release of [^3H]MPP+ via NET EC50,[5],Inactive
same,EC50,[6],476 ± 98 nM
same,Emax,[6],54%
CCO [alcohol],serum concentration,[1]; Case 4,800000 ng/mL
